Laboratory results reported in the supplement of paper PMC10307832.

Key:
Assay in all cases: relative viability (nuclei count vs DMSO), 5 days (fraction); higher = more cells survive
[1] = compound: CN(c1ncccc1CNc1nc(Nc2ccc3c(c2)CC(=O)N3)ncc1C(F)(F)F)S(C)(=O)=O + Cc1nc(Nc2ncc(C(=O)Nc3c(C)cccc3Cl)s2)cc(N2CCN(CCO)CC2)n1 [Dasatinib] (partner 0.075 µM)
In short: (§1)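 Lung cancer cell lines were seeded in 1536-well plates and dosed by pin tool the next day, with either a single drug or a fixed anchor-drug dose combined with five library-drug doses (not always all listed) spaced in √10 steps. Five days later, one step fixed the cells and stained their nuclei (final 0.05% Triton X-100, 1% formaldehyde, 1 ug/ml Hoechst), and nuclei were counted on 4× images. Relative viability is the nuclei count in treated wells divided by the count in vehicle wells, and each value is the median of duplicate plates.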

[2] = compound: CN(c1ncccc1CNc1nc(Nc2ccc3c(c2)CC(=O)N3)ncc1C(F)(F)F)S(C)(=O)=O + Cc1cc(Nc2cc(N3CCN(C)CC3)nc(Sc3ccc(NC(=O)C4CC4)cc3)n2)n[nH]1 [Tozasertib] (partner 0.1 µM)
In short: as §1

[3] = compound: CN(c1ncccc1CNc1nc(Nc2ccc3c(c2)CC(=O)N3)ncc1C(F)(F)F)S(C)(=O)=O + Cc1nc(NC(=O)N2CCC[C@H]2C(N)=O)sc1-c1ccnc(C(C)(C)C(F)(F)F)c1 [Alpelisib] (partner 2 µM)
In short: as §1

[4] = compound: CN(c1ncccc1CNc1nc(Nc2ccc3c(c2)CC(=O)N3)ncc1C(F)(F)F)S(C)(=O)=O + CCNC(=O)c1noc(-c2cc(C(C)C)c(O)cc2O)c1-c1ccc(CN2CCOCC2)cc1 [Luminespib] (partner 0.01 µM)
In short: as §1

HCC-827
relative viability ([1]; first compound 0.01 µM): 0.191 | relative viability ([1]; first compound 0.03162 µM): 0.185 | relative viability ([1]; first compound 0.1 µM): 0.115 | relative viability ([1]; first compound 0.3162 µM): 0.107 | relative viability ([1]; first compound 1 µM): 0.109 | relative viability ([2]; first compound 0.01 µM): 0.372 | relative viability ([2]; first compound 0.03162 µM): 0.455 | relative viability ([2]; first compound 0.1 µM): 0.401 | relative viability ([2]; first compound 0.3162 µM): 0.436 | relative viability ([2]; first compound 1 µM): 0.43 | relative viability ([3]; first compound 0.01 µM): 1.02 | relative viability ([3]; first compound 0.03162 µM): 1.07 | relative viability ([3]; first compound 0.1 µM): 1.03 | relative viability ([3]; first compound 0.3162 µM): 1.01 | relative viability ([3]; first compound 1 µM): 0.942 | relative viability ([4]; first compound 0.01 µM): 0.346 | relative viability ([4]; first compound 0.03162 µM): 0.612 | relative viability ([4]; first compound 0.1 µM): 0.595 | relative viability ([4]; first compound 0.3162 µM): 1.02 | relative viability ([4]; first compound 1 µM): 0.629

HOP-62
relative viability ([1]; first compound 0.01 µM): 0.616 | relative viability ([1]; first compound 0.03162 µM): 0.512 | relative viability ([1]; first compound 0.1 µM): 0.5 | relative viability ([1]; first compound 0.3162 µM): 0.301 | relative viability ([1]; first compound 1 µM): 0.301 | relative viability ([2]; first compound 0.01 µM): 0.408 | relative viability ([2]; first compound 0.03162 µM): 0.42 | relative viability ([2]; first compound 0.1 µM): 0.391 | relative viability ([2]; first compound 0.3162 µM): 0.318 | relative viability ([2]; first compound 1 µM): 0.262 | relative viability ([3]; first compound 0.01 µM): 0.909 | relative viability ([3]; first compound 0.03162 µM): 1.25 | relative viability ([3]; first compound 0.1 µM): 1.06 | relative viability ([3]; first compound 0.3162 µM): 0.84 | relative viability ([3]; first compound 1 µM): 0.772 | relative viability ([4]; first compound 0.01 µM): 0.969 | relative viability ([4]; first compound 0.03162 µM): 0.933 | relative viability ([4]; first compound 0.1 µM): 0.949 | relative viability ([4]; first compound 0.3162 µM): 0.932 | relative viability ([4]; first compound 1 µM): 0.699

IA-LM
relative viability ([3]; first compound 0.01 µM): 0.631 | relative viability ([3]; first compound 0.03162 µM): 0.884 | relative viability ([3]; first compound 0.1 µM): 0.637 | relative viability ([3]; first compound 0.3162 µM): 0.649 | relative viability ([3]; first compound 1 µM): 0.688

LC-2-ad
relative viability ([1]; first compound 0.01 µM): 0.414 | relative viability ([1]; first compound 0.03162 µM): 0.484 | relative viability ([1]; first compound 0.1 µM): 0.492 | relative viability ([1]; first compound 0.3162 µM): 0.399 | relative viability ([1]; first compound 1 µM): 0.335 | relative viability ([2]; first compound 0.01 µM): 0.417 | relative viability ([2]; first compound 0.03162 µM): 0.433 | relative viability ([2]; first compound 0.1 µM): 0.546 | relative viability ([2]; first compound 0.3162 µM): 0.426 | relative viability ([2]; first compound 1 µM): 0.442 | relative viability ([3]; first compound 0.01 µM): 0.789 | relative viability ([3]; first compound 0.03162 µM): 0.714 | relative viability ([3]; first compound 0.1 µM): 0.883 | relative viability ([3]; first compound 0.3162 µM): 0.902 | relative viability ([3]; first compound 1 µM): 0.877 | relative viability ([4]; first compound 0.01 µM): 1.22 | relative viability ([4]; first compound 0.03162 µM): 1.05 | relative viability ([4]; first compound 0.1 µM): 0.967 | relative viability ([4]; first compound 0.3162 µM): 0.98 | relative viability ([4]; first compound 1 µM): 0.845

LCLC-97TM1
relative viability ([1]; first compound 0.01 µM): 0.727 | relative viability ([1]; first compound 0.03162 µM): 0.794 | relative viability ([1]; first compound 0.1 µM): 0.815 | relative viability ([1]; first compound 0.3162 µM): 0.773 | relative viability ([1]; first compound 1 µM): 0.722 | relative viability ([2]; first compound 0.01 µM): 0.281 | relative viability ([2]; first compound 0.03162 µM): 0.194 | relative viability ([2]; first compound 0.1 µM): 0.256 | relative viability ([2]; first compound 0.3162 µM): 0.218 | relative viability ([2]; first compound 1 µM): 0.18 | relative viability ([3]; first compound 0.03162 µM): 0.246 | relative viability ([3]; first compound 0.1 µM): 0.229 | relative viability ([3]; first compound 0.3162 µM): 0.246 | relative viability ([3]; first compound 1 µM): 0.161 | relative viability ([4]; first compound 0.01 µM): 0.779 | relative viability ([4]; first compound 0.03162 µM): 0.854 | relative viability ([4]; first compound 0.1 µM): 0.788 | relative viability ([4]; first compound 0.3162 µM): 0.81 | relative viability ([4]; first compound 1 µM): 0.632

LCLC-103H
relative viability ([1]; first compound 0.01 µM): 0.47 | relative viability ([1]; first compound 0.03162 µM): 0.36 | relative viability ([1]; first compound 0.1 µM): 0.481 | relative viability ([1]; first compound 0.3162 µM): 0.442 | relative viability ([1]; first compound 1 µM): 0.332 | relative viability ([2]; first compound 0.01 µM): 0.469 | relative viability ([2]; first compound 0.03162 µM): 0.457 | relative viability ([2]; first compound 0.1 µM): 0.414 | relative viability ([2]; first compound 0.3162 µM): 0.415 | relative viability ([2]; first compound 1 µM): 0.466 | relative viability ([3]; first compound 0.01 µM): 1.04 | relative viability ([3]; first compound 0.03162 µM): 0.982 | relative viability ([3]; first compound 0.1 µM): 0.868 | relative viability ([3]; first compound 0.3162 µM): 0.872 | relative viability ([3]; first compound 1 µM): 0.897 | relative viability ([4]; first compound 0.01 µM): 0.754 | relative viability ([4]; first compound 0.03162 µM): 0.927 | relative viability ([4]; first compound 0.1 µM): 0.918 | relative viability ([4]; first compound 0.3162 µM): 0.892 | relative viability ([4]; first compound 1 µM): 0.752

LK-2
relative viability ([1]; first compound 0.01 µM): 0.316 | relative viability ([1]; first compound 0.03162 µM): 0.293 | relative viability ([1]; first compound 0.1 µM): 0.269 | relative viability ([1]; first compound 0.3162 µM): 0.312 | relative viability ([1]; first compound 1 µM): 0.27 | relative viability ([2]; first compound 0.01 µM): 0.201 | relative viability ([2]; first compound 0.03162 µM): 0.163 | relative viability ([2]; first compound 0.1 µM): 0.174 | relative viability ([2]; first compound 0.3162 µM): 0.169 | relative viability ([2]; first compound 1 µM): 0.182 | relative viability ([3]; first compound 0.01 µM): 0.955 | relative viability ([3]; first compound 0.03162 µM): 1.35 | relative viability ([3]; first compound 0.1 µM): 0.927 | relative viability ([3]; first compound 0.3162 µM): 0.959 | relative viability ([3]; first compound 1 µM): 1.08 | relative viability ([4]; first compound 0.01 µM): 0.175 | relative viability ([4]; first compound 0.03162 µM): 0.174 | relative viability ([4]; first compound 0.1 µM): 0.165 | relative viability ([4]; first compound 0.3162 µM): 0.201 | relative viability ([4]; first compound 1 µM): 0.235

LOU-NH91
relative viability ([1]; first compound 0.01 µM): 0.56 | relative viability ([1]; first compound 0.03162 µM): 0.526 | relative viability ([1]; first compound 0.1 µM): 0.491 | relative viability ([1]; first compound 0.3162 µM): 0.501 | relative viability ([1]; first compound 1 µM): 0.448 | relative viability ([2]; first compound 0.01 µM): 0.641 | relative viability ([2]; first compound 0.03162 µM): 0.674 | relative viability ([2]; first compound 0.1 µM): 0.647 | relative viability ([2]; first compound 0.3162 µM): 0.645 | relative viability ([2]; first compound 1 µM): 0.576 | relative viability ([3]; first compound 0.01 µM): 0.75 | relative viability ([3]; first compound 0.03162 µM): 0.792 | relative viability ([3]; first compound 0.1 µM): 0.703 | relative viability ([3]; first compound 0.3162 µM): 0.771 | relative viability ([3]; first compound 1 µM): 0.762 | relative viability ([4]; first compound 0.01 µM): 0.322 | relative viability ([4]; first compound 0.03162 µM): 0.366 | relative viability ([4]; first compound 0.1 µM): 0.313 | relative viability ([4]; first compound 0.3162 µM): 0.351 | relative viability ([4]; first compound 1 µM): 0.355

LU99A
relative viability ([1]; first compound 0.01 µM): 0.63 | relative viability ([1]; first compound 0.03162 µM): 0.529 | relative viability ([1]; first compound 0.1 µM): 0.378 | relative viability ([1]; first compound 0.3162 µM): 0.254 | relative viability ([1]; first compound 1 µM): 0.267 | relative viability ([2]; first compound 0.01 µM): 0.319 | relative viability ([2]; first compound 0.03162 µM): 0.301 | relative viability ([2]; first compound 0.1 µM): 0.297 | relative viability ([2]; first compound 0.3162 µM): 0.258 | relative viability ([2]; first compound 1 µM): 0.246 | relative viability ([3]; first compound 0.01 µM): 0.48 | relative viability ([3]; first compound 0.03162 µM): 0.62 | relative viability ([3]; first compound 0.1 µM): 0.525 | relative viability ([3]; first compound 0.3162 µM): 0.588 | relative viability ([3]; first compound 1 µM): 0.577 | relative viability ([4]; first compound 0.01 µM): 0.316 | relative viability ([4]; first compound 0.03162 µM): 0.264 | relative viability ([4]; first compound 0.1 µM): 0.323 | relative viability ([4]; first compound 0.3162 µM): 0.325 | relative viability ([4]; first compound 1 µM): 0.246
